Results reported in patent publication US11814364B2, “Pyridine N-oxide derivatives useful as factor XIa inhibitors” (Janssen Pharmaceutica NV, priority 2021, dated 2023).

Target: human plasma kallikrein (Homo sapiens, UniProt P03952)
Assay: Kallikrein inhibition FLINT assay with quenched AMC peptide substrate Z-Gly-Pro-Arg-AMC (end point EP or kinetic KIN reads)
Format: biochemical
Settings: kinetic reads at 5 min intervals over 30 min; read-out: Kallikrein (KIN) IC50
Outline: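 Enzyme and compound were preincubated 30 min before adding 50 μM AMC substrate in pH 7.5 Tris/NaCl/CaCl2/BSA/CHAPS buffer. AMC release was read at 30 min endpoint or every 5 min.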

Chain of human plasma kallikrein (P03952 391-638 limits assumed): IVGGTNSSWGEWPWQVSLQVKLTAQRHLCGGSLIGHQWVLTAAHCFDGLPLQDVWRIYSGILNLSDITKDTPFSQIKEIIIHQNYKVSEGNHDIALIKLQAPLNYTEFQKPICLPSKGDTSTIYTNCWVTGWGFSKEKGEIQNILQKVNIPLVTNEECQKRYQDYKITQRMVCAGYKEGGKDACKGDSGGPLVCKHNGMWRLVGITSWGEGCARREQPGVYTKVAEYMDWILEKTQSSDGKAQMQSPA
Chain of human plasma kallikrein (P03952 20-390 partner limits assumed): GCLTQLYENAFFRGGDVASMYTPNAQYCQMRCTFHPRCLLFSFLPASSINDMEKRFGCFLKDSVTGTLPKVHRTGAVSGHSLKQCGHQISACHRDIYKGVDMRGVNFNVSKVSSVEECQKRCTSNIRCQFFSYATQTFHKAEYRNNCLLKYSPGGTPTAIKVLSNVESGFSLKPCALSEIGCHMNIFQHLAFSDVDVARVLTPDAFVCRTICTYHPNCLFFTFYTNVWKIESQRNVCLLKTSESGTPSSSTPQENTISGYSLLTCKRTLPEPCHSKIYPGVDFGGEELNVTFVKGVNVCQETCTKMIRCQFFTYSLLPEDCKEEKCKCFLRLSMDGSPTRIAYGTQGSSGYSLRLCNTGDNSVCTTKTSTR

SMILES | IC50 [nM]
[O-][n+]1cc(-c2c(-n3cnnn3)ccc(Cl)c2F)ccc1C(CC1CC1)n1cc(-c2ccncn2)cn1 (single isomer, unassigned) [Example P258] | 201
NC(=O)c1ccc(-c2cnn(C(Cc3ccn(C(F)F)n3)c3ccc(-c4c(-n5cc(C(F)(F)F)nn5)ccc(Cl)c4F)c[n+]3[O-])c2)cc1F (single isomer, unassigned) [Example P891] | 536
COC(=O)Nc1ccc(-c2cnn(C(CC3CCCO3)c3ccc(-c4c(-n5cnnn5)ccc(Cl)c4F)c[n+]3[O-])c2)cc1 (single isomer, unassigned) [Example P202] | 119
[O-][n+]1cc(-c2c(-n3cc(Cl)nn3)ccc(Cl)c2F)ccc1[C@@H](Cn1cc(OC(F)F)cn1)n1cc(-c2cn(C(F)F)nn2)cn1 [Example P655] | 734
N#Cc1cc(-c2cnn(C(CN3CCOC3=O)c3ccc(-c4c(-n5cnnn5)ccc(Cl)c4F)c[n+]3[O-])c2)ccn1 (single isomer, unassigned) [Example P439] | 69.8
Cn1ncc2cc(-c3cnn(C(CC4CC4)c4ccc(-c5c(-n6cnnn6)ccc(Cl)c5F)c[n+]4[O-])c3)ccc21 (stereo not drawn) [Example P265] | 88.1
Cn1ncnc1-c1cnn(C(CCOC(F)(F)F)c2ccc(-c3c(-n4cc(C(F)(F)F)nn4)ccc(Cl)c3F)c[n+]2[O-])c1 (stereo not drawn) [Example P840] | ~423
COCC(=O)Nc1ccc(-c2cnn(C(CC3CC3)c3ccc(-c4c(-n5cnnn5)ccc(Cl)c4F)c[n+]3[O-])c2)cc1 (stereo not drawn) [Example P131] | 192
[O-][n+]1cc(-c2c(-n3cnnn3)ccc(Cl)c2F)ccc1[C@H](Cn1cc(F)cn1)n1cc(-c2cncs2)cn1 [Example P493] | 179
[O-][n+]1cc(-c2cc(Cl)ccc2-n2cnnn2)ccc1C(Cn1cc(C(F)(F)F)cn1)n1cc(-c2ccnc(F)c2)cn1 (stereo not drawn) [Example P321] | 94.9
CC1(C(=O)NCC(c2ccc(-c3cc(Cl)ccc3-n3cnnn3)c[n+]2[O-])n2cc(-c3ccnc(F)c3)cn2)CC1 (stereo not drawn) [Example P347] | 806
[O-][n+]1cc(-c2c(-n3cc(Cl)nn3)ccc(Cl)c2F)ccc1C(Cn1cc(F)cn1)n1cc(-c2ccnc(C(F)(F)F)c2)cn1 (stereo not drawn) [Example P479] | 185
COC(=O)Nc1ccc(-c2cnn(C(CC(C)C)c3ccc(-c4c(-n5cnnn5)ccc(Cl)c4F)c[n+]3[O-])c2)cc1 (single isomer, unassigned) [Example P181] | 67.7
[O-][n+]1cc(F)c(-c2cnn(C(CC3CC3)c3ccc(-c4c(-n5cnnn5)ccc(Cl)c4F)c[n+]3[O-])c2)c(Cl)c1 (stereo not drawn) [Example P518] | 383
O=C(O)c1ccc(-c2cnn(C(CC3CC3C(=O)N3CCC(c4ccccc4)C3)c3ccc(-c4c(-n5cnnn5)ccc(Cl)c4F)c[n+]3[O-])c2)cc1 (stereo not drawn) [Example P175] | 365
O=C(O)c1ccc(-c2cnn(C(CN3CCCC3=O)c3ccc(-c4c(C(F)F)ccc(Cl)c4F)c[n+]3[O-])c2)cc1 (single isomer, unassigned) [Example Q15] | 382
O=C(O)c1ccc(-c2cnn(C(Cc3ccccc3)c3ccc(-c4c(OCC(F)(F)F)ccc(Cl)c4F)c[n+]3[O-])c2)cc1 (stereo not drawn) [Example Q4] | 265
COC(=O)Nc1ccc(-c2cnn(C(CC3CC(C)(C)C3)c3ccc(-c4c(-n5cnnn5)ccc(Cl)c4F)c[n+]3[O-])c2)cc1 (stereo not drawn) [Example P126] | 248
Cc1nc(N)ccc1-c1cnn(C(CC2CC2)c2ccc(-c3c(-n4cnnn4)ccc(Cl)c3F)c[n+]2[O-])c1 (stereo not drawn) [Example P183] | 186
[O-][n+]1cc(-c2c(-n3cnnn3)ccc(Cl)c2F)ccc1C(CC1CC1)n1cc(-c2cnco2)cn1 (stereo not drawn) [Example P497] | 169
COC(=O)Nc1ccc(-c2cnn(C(CC3CCC(C)CC3)c3ccc(-c4c(-n5cnnn5)ccc(Cl)c4F)c[n+]3[O-])c2)cc1 (stereo not drawn) [Example P129] | 136
NC(=O)c1ccc(-c2cnn(C(Cc3ccn(C(F)F)n3)c3ccc(-c4cc(Cl)ccc4-n4cc(C(F)(F)F)nn4)c[n+]3[O-])c2)cc1F (single isomer, unassigned) [Example P905] | 889
Cn1ncnc1-c1cnn(C(Cc2ncco2)c2ccc(-c3c(-n4cc(C(F)(F)F)nn4)ccc(Cl)c3F)c[n+]2[O-])c1 (stereo not drawn) [Example P925] | 187
CN(CC(c1ccc(-c2c(-n3cnnn3)ccc(Cl)c2F)c[n+]1[O-])n1cc(-c2ccnc(C(F)(F)F)c2)cn1)C(=O)C1CCOCC1 (stereo not drawn) [Example P407] | 109
Cn1nnc(F)c1-c1cnn([C@H](CCOC(F)F)c2ccc(-c3c(-n4cc(C(F)(F)F)nn4)ccc(Cl)c3F)c[n+]2[O-])c1 [Example P754] | 74.3
COCC[C@H](c1ccc(-c2c(-n3cnnn3)ccc(Cl)c2F)c[n+]1[O-])n1cc(-c2ccnn2C(F)F)cn1 [Example P561] | 78.3
O=C(O)c1ccc(-c2cnn(C(CC(=O)N3CCCC3)c3ccc(-c4c(-n5cc(C(F)(F)F)nn5)ccc(Cl)c4F)c[n+]3[O-])c2)cc1F (stereo not drawn) [Example P901] | 287

The next molecules have a lower IC50 than those just listed; values first:

IC50 [nM] | SMILES
62.4 | COCC[C@H](c1ccc(-c2c(-n3cnnn3)ccc(Cl)c2F)c[n+]1[O-])n1cc(-c2nn(C(F)F)cc2Cl)cn1 [Example P576]
51 | Nc1ccc(-c2cnn(C(Cn3cccn3)c3ccc(-c4c(-n5cnnn5)ccc(Cl)c4F)c[n+]3[O-])c2)c(F)n1 (single isomer, unassigned) [Example P315]
50.8 | [O-][n+]1cc(-c2cc(Cl)ccc2-n2cnnn2)ccc1C(Cc1ccc(Cl)cc1)n1cc(-c2ccncc2F)cn1 (stereo not drawn) [Example P174]
39.8 | [2H]C([2H])([2H])OCCC(c1ccc(-c2c(-n3cnnn3)ccc(Cl)c2F)c[n+]1[O-])n1cc(-c2ccnc(C(F)(F)F)c2)cn1 (single isomer, unassigned) [Example P386]
38.3 | O=C1CCCN1CC(c1ccc(-c2c(-n3cnnn3)ccc(Cl)c2F)c[n+]1[O-])n1cc(-c2cc[n+]([O-])c(C(F)F)c2)cn1 (single isomer, unassigned) [Example P362]
36.3 | [O-][n+]1cc(-c2c(-n3cnnn3)ccc(Cl)c2F)ccc1C(Cn1ccc(C2CCOCC2)n1)n1cc(-c2ccnc(C(F)(F)F)c2)cn1 (stereo not drawn) [Example P419]
28.5 | [O-][n+]1cc(-c2c(-n3cnnn3)ccc(Cl)c2F)ccc1C(Cn1cc(C(F)(F)F)cn1)n1cc(-c2ccnc(F)c2)cn1 (stereo not drawn) [Example P331]
24.9 | CN(CC(c1ccc(-c2c(-n3cnnn3)ccc(Cl)c2F)c[n+]1[O-])n1cc(-c2ccncc2)cn1)C(=O)Cc1ccccc1 (stereo not drawn) [Example P299]
23 | [O-][n+]1cc(-c2cc(Cl)ccc2-n2cnnn2)ccc1C(Cn1cccn1)n1cc(-c2ccnc(C3CC3)c2)cn1 (stereo not drawn) [Example P286]
21.6 | CCC(c1ccc(-c2c(-n3cnnn3)ccc(Cl)c2F)c[n+]1[O-])n1cc(-c2ccc(C(N)=O)c(F)c2)cn1 (single isomer, unassigned) [Example P949]
18 | Cn1ncnc1-c1cnn([C@H](CCOC(F)F)c2ccc(-c3c(-n4cnnn4)ccc(Cl)c3F)c[n+]2[O-])c1 [Example P550]
14.5 | [O-][n+]1cc(-c2c(-n3cnnn3)ccc(Cl)c2F)ccc1C(Cn1cc(F)cn1)n1cc(-c2ccnn2C(F)F)cn1 (single isomer, unassigned) [Example P644]
13.1 | COc1cc(C(CC2CC2)n2cc(-c3sc(C(N)=O)cc3C)cn2)[n+]([O-])cc1-c1cc(Cl)ccc1-n1cc(C(F)(F)F)nn1 (single isomer, unassigned) [Example P958]
10.8 | COc1ccc(CC(c2ccc(-c3c(-n4cnnn4)ccc(Cl)c3F)c[n+]2[O-])n2cc(-c3ccc(C(=O)NC4CC4)cc3)cn2)cc1 (stereo not drawn) [Example P135]
9.7 | CN(CC(c1ccc(-c2c(-n3cnnn3)ccc(Cl)c2F)c[n+]1[O-])n1cc(-c2ccnc(C(F)(F)F)c2)cn1)C(=O)c1ccn(C)c(=O)c1 (single isomer, unassigned) [Example P435]
9.4 | NC(=O)c1ccn(CC(c2ccc(-c3c(-n4cnnn4)ccc(Cl)c3F)c[n+]2[O-])n2cc(-c3ccnc(C(F)(F)F)c3)cn2)n1 (single isomer, unassigned) [Example P448]
7.9 | [O-][n+]1cc(-c2c(-n3cnnn3)ccc(Cl)c2F)ccc1C(CCOC(F)F)n1cc(-c2c(Cl)cnn2C(F)F)cn1 (stereo not drawn) [Example P574]
7.7 | Cn1nnc(Cl)c1-c1cnn([C@H](CCOC(F)F)c2ccc(-c3c(-n4cnnn4)ccc(Cl)c3F)c[n+]2[O-])c1 [Example P726]
7.5 | [O-][n+]1cc(-c2c(-n3cnnn3)ccc(Cl)c2F)ccc1[C@@H](Cc1ccc(F)cc1)n1cc(-c2ccn(C(F)F)n2)cn1 [Example P569]
6.4 | [O-][n+]1cc(-c2c(-n3cnnn3)ccc(Cl)c2F)ccc1[C@@H](Cc1ccn(C(F)F)n1)n1cc(-c2ccnn2C(F)F)cn1 [Example P734]
5.8 | O=C(O)c1ccc(-c2cnn(C(CCOC(F)F)c3ccc(-c4c(-n5cc(C(F)(F)F)nn5)ccc(Cl)c4F)c[n+]3[O-])c2)cc1F (single isomer, unassigned) [Example P887]
5.4 | O=C(NC1CC1)c1ccc(-c2cnn(C(Cc3ccc(F)cc3)c3ccc(-c4cc(Cl)ccc4-n4cnnn4)c[n+]3[O-])c2)cc1 (stereo not drawn) [Example P55]
4.9 | Nc1nc(Cl)c(-c2cnn(C(CC3CC3)c3ccc(-c4c(-n5cnnn5)ccc(Cl)c4F)c[n+]3[O-])c2)s1 (stereo not drawn) [Example P624]
2.9 | NC(=O)c1ccc(-c2cnn(C(Cc3ccn(C(F)F)n3)c3ccc(-c4c(-n5cc(C(F)(F)F)nn5)ccc(Cl)c4F)c[n+]3[O-])c2)cc1F (stereo not drawn) [Example P892]
2.7 | CCC(c1cc(OC)c(-c2cc(Cl)ccc2-n2cc(C(F)(F)F)nn2)c[n+]1[O-])n1cc(-c2ccc(C(N)=O)c(F)c2)cn1 (single isomer, unassigned) [Example P878]
2.5 | O=C(O)c1ccc(-c2cnn(C(Cc3ccn(C(F)F)n3)c3ccc(-c4c(-n5cc(C(F)(F)F)nn5)ccc(Cl)c4F)c[n+]3[O-])c2)cc1F (single isomer, unassigned) [Example P931]
0.2 | NC(=O)c1ccc(-c2cnn(C(Cc3ccn(C(F)F)n3)c3ccc(-c4c(-n5cc(Cl)nn5)ccc(Cl)c4F)c[n+]3[O-])c2)cc1 (single isomer, unassigned) [Example P911]
